Patent US10391201B2, “Gene therapy” (Ospedale San Raffaele S.r.l., priority 2014, dated 2019)

What was measured:
[1] = system: bone marrow (BM)-derived CD34+ cells; assay type: cell-based, human; conditions: BM-derived CD34+ HSPC; MOI 1; 20 μm FK506, 5 mM 3-MA alone or with 10 μM CsA / 10 μg/mL rapamycin
Method: (§1) Human CB and BM-derived haematopoietic stem/progenitor cells (HSPC) were cultured in serum-free StemSpan medium (StemCell Technologies) supplemented with 100 ng/mL recombinant human stem cell factor (rhSCF), 20 ng/mL recombinant human thrombopoietin (rhTPO), 100 ng/mL recombinant human Flt3 ligand (rhFlt3) and 20 ng/mL recombinant human IL6 (rhIL6) (all from Peprotech) 16 to 24 hours prior to transduction. HSPC were then transduced at a concentration of 1×10^6 cells per mL with vesicular stomatitis virus glycoprotein (VSV-G)-pseudotyped SINLV for 20 hours at the indicated multiplicity of infection (MOI) in the same medium. After transduction, cells were washed and maintained serum-free StemSpan supplemented with cytokines as above until the reading of GFP-positive (GFP+) cells by FACS. After FACS they were maintained in Roswell Park Memorial Institute medium (RPMI, Lonza) supplemented with 10% FBS, 25 ng/mL rhSCF, 5 ng/mL rhIL6, 25 ng/mL rhFlt3 and 5 ng/mL rhTPO for another seven days before analysis of vector copy numbers. MDM were transduced 7 days after differentiation. T lymphocytes were transduced at a concentration of 10^6 cells per mL, after 3 days of stimulation. All the cells were exposed to the vector for 16-20 hours.
(§2) They were added to the transduction medium at the indicated concentration and washed out with the vector 16-20 hours later.
(§3) GFP expression in transduced cells was measured 5-7 days post-transduction. Adherent MDM were detached by scraping in 5 mM PBS-EDTA, washed and resuspended in PBS containing 2% FBS. Cells grown in suspension were washed and resuspended in PBS containing 2% FBS. To exclude dead cells from the analysis, 10 ng/mL 7-aminoactinomycin D (7-AAD) was added.
(§4) DNA from cell cultures was extracted using a Maxwell 16 instrument (Promega) or Blood & Cell Culture DNA Micro Kit (Qiagen). To amplify the vector sequence, primers and probes complementary to the vector Rev responsive element sequence were used. Vector copy numbers and replication intermediates were normalised to genomic DNA content, which was assessed using the human TERT gene. Quantitative polymerase chain reaction (qPCR) primers and probe sequences and conditions were previously described (Santoni de Sio, F. R. et al (2006) Blood 107: 4257-65).

[2] = system: cord blood (CB)-derived CD34+ cells; assay type: cell-based, human; conditions: CB-derived CD34+ HSPC; MOI 1; 20 μm FK506, 5 mM 3-MA alone or with 10 μM CsA / 10 μg/mL rapamycin
Method: as §1, §2, §3, §4

Cn1cnc(N)c2ncnc1-2 [3-MA, 3-methyladenine]
impact on LV transduction efficiency (in words) [1]: little or no effect | impact on LV transduction efficiency (in words) [2]: little or no effect
